From patent publication US9453038B2, “Glucokinase activator compounds, compositions containing such compounds, and methods of treatment” (Merck Sharp & Dohme Corp., priority 2012, dated 2016)
Like-named read-outs stand apart in the source and are kept apart here.

Target: Recombinant human liver glucokinase (FLAG fusion protein) (Homo sapiens (Human), UniProt P35557)
Experiment: glucokinase (GK) activation assay, Thio-NADH formation coupled to G6PDH, absorbance at 405 nm
Format: biochemical
Conditions: 2.5 mM Glu; for EC50: 30° C.; for Emax: OD value of DMSO control regarded as 100%
Description: The glucokinase activity can, for instance, be determined without directly measuring glucose-6-phosphate by measuring the amount of Thio-NADH generated during the production of phosphogluconolactone from glucose-6-phosphate by a reporter enzyme glucose-6-phosphate dehydrogenase.
To test the exemplified compounds, the following assay was employed. Recombinant human liver glucokinase was expressed as a FLAG fusion protein in E. coli, and purified on ANTIFLAG M2 AFFINITY GEL (Sigma). The assay was carried out at 30° C. in a 96-well plate. In the plate was distributed 69 μl each of assay buffer (25 mM Hepes Buffer: pH=7.2, 2 mM MgCl2, 1 mM ATP, 0.5 mM TNAD, 1 mM dithiothreitol), to which was added 1 μl of a DMSO solution of the compound or DMSO as control. Then, 20 μl of pre-ice-cooled enzyme mixture (FLAG-GK, 20 U/ml G6PDH) was distributed thereto, to which was added 10 μl of 25 mM glucose as substrate to initiate the reaction (final glucose concentration=2.5 mM). After starting the reaction, the absorbance at 405 nm was measured every 30 seconds for 10 minutes to evaluate the compound based on the initial increase for 5 minutes. FLAG-GK was added so that the increase of absorbance after 5 minutes fell between 0.05 to 0.1 in the presence of 1% DMSO.
The OD values of the respective compounds were measured in the respective concentrations, wherein the OD value of DMSO as control is regarded as 100%. From the OD values at the respective concentrations, Emax (%, 2.5 mM Glu) and EC50 (nM, 2.5 mM Glu) were calculated and used as indicators of the GK activation capability of the compounds. According to the above assay, the GK activation capability of the exemplified compounds of the present invention was determined. […] Where different enantiomers of the same compound were tested, two numbers are provided. Where 3 numbers are provided, for example, Ex. #30, data for the racemic form is also shown.

Sequence of Recombinant human liver glucokinase (FLAG fusion protein) (P35557 other isoform, or with tags, fused parts or gaps): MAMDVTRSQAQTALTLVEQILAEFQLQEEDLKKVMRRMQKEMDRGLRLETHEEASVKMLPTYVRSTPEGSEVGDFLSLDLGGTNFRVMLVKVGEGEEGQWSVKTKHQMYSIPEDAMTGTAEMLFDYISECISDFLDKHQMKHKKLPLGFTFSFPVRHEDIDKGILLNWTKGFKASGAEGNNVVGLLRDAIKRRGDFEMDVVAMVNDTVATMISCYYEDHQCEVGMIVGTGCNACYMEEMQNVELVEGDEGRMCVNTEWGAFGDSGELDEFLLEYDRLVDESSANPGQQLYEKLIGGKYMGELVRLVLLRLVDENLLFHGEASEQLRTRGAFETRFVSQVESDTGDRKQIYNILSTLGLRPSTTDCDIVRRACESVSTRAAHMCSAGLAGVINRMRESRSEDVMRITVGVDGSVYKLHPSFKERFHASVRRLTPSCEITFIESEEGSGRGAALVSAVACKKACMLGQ

Structure (SMILES) | EC50 | Emax (read-out: Emax) | Emax
CN1C(=O)CCC1c1cc2[nH]c(-c3ccc(OCC(=O)O)cn3)cc2cc1Oc1ccc(S(C)(=O)=O)nc1 (centres unmarked) [Example 18, 2-((6-(6-(1-methyl-5-oxopyrrolidin-2-yl)-5-((6-(methylsulfonyl)pyridin-3-yl)oxy)-1H-indol-2-yl)pyridin-3-yl)oxy)acetic acid] | 0.081 µM | 612% | 
CS(=O)(=O)c1ccc(Oc2cc3cc(-c4ccc(CCC(=O)O)cn4)[nH]c3cc2Oc2ccccc2F)cc1 [Example 7, 3-(6-{6-(2-FLUOROPHENOXY)-5-[4-(METHYLSULFONYL)PHENOXY]-1H-INDOL-2-YL}PYRIDIN-3-YL)PROPANOIC ACID] | 0.774 µM | 15.7% | 
CN1C(=O)CCC1c1cc2[nH]c(-c3ccc(CC(C)(C)C(=O)O)cn3)cc2cc1Oc1ccc(S(C)(=O)=O)nc1 (centres unmarked) [Example 17, 2,2-dimethyl-3-(6-(6-(1-methyl-5-oxopyrrolidin-2-yl)-5-((6-(methylsulfonyl)pyridin-3-yl)oxy)-1H-indol-2-yl)pyridin-3-yl)propanoic acid] | 0.108 µM | 643% | 
CCOP(=O)(Cc1cnc(-c2cc3cc(Oc4ccc(S(C)(=O)=O)nc4)c(C4CCC(=O)N4C)cc3[nH]2)s1)OCC (centres unmarked) [Example 37, diethyl((2-(6-(1-methyl-5-oxopyrrolidin-2-yl)-5-((6-(methylsulfonyl)pyridin-3-yl)oxy)-1H-indol-2-yl)thiazol-5-yl)methyl)phosphonate] | 0.0235 µM | 696% | 
CCS(=O)(=O)c1ccc(Oc2cc3cc(-c4ccc(C(F)(F)F)cn4)[nH]c3cc2C2CCC(=O)N2CC(=O)O)cc1 (centres unmarked) [Example 3, (2-{5-[4-(ETHYLSULFONYL)PHENOXY]-2-[5-(TRIFLUOROMETHYL)PYRIDIN-2-YL]-1H-INDOL-6-YL}-5-OXOPYRROLIDIN-1-YL)ACETIC ACID] | 0.797 µM | 628% | 
CN1C(=O)CCC1c1cc2[nH]c(-c3ccc(C(=O)NCCC(=O)O)cn3)cc2cc1Oc1ccc(S(C)(=O)=O)nc1 (stereo not drawn) [Example 8, N-({6-[6-(1-METHYL-5-OXOPYRROLIDIN-2-YL)-5-{[6-(METHYL-SULFONYL)PYRIDIN-3-YL]OXY}-1H-INDOL-2-YL]PYRIDIN-3-YL}-CARBONYL)-β-ALANINE] | 0.116 µM | 501% | 
CN1C(=O)CCC1c1cc2[nH]c(-c3nc(CC(=O)O)cs3)cc2cc1Oc1ccc(S(C)(=O)=O)cc1 (centres unmarked) [Example 34, 2-(2-(6-(1-methyl-5-oxopyrrolidin-2-yl)-5-(4-(methylsulfonyl)phenoxy)-1H-indol-2-yl)thiazol-4-yl)acetic acid] | 0.118 µM | 606% | 
COC(=O)CCc1ccc(Oc2cc3cc(-c4ccc(C(F)(F)F)cn4)[nH]c3cc2C2CCC(=O)N2C)cc1 (centres unmarked) [Example 4, METHYL 3-[4-({6-(1-METHYL-5-OXOPYRROLIDIN-2-YL)-2-[5-(TRIFLUORO-METHYL)PYRIDIN-2-YL]-1H-INDOL-5-YL}OXY)PHENYL]PROPIONATE] |  | 455% | 453.8%
COCc1ccc(Oc2cc3cc(-c4ccc(CCC(=O)O)cn4)[nH]c3cc2C2CCC(=O)N2C)cn1 (centres unmarked) [Example 19, 3-(6-(5-((6-(methoxymethyl)pyridin-3-yl)oxy)-6-(1-methyl-5-oxopyrrolidin-2-yl)-1H-indol-2-yl)pyridin-3-yl)propanoic acid] | 0.0718 µM | 431% | 
CN1C(=O)CCC1c1cc2[nH]c(-c3ccccc3)cc2cc1Oc1ccc(CCC(=O)O)cc1 (centres unmarked) [Example 22, 3-(4-((6-(1-methyl-5-oxopyrrolidin-2-yl)-2-phenyl-1H-indol-5-yl)oxy)phenyl)propanoic acid] | 0.456 µM | 410% | 
CC(=O)N1CCCC1c1cc2[nH]c(-c3ccc(CCC(=O)O)cn3)cc2cc1Oc1ccc(C(=O)N2CCC2)nc1 (centres unmarked) [Example 11, 3-{6-[6-(1-ACETYLPYRROLIDIN-2-YL)-5-{[6-(AZETIDIN-1-YLCARBONYL)PYRIDIN-3-YL]OXY}-1H-INDOL-2-YL]PYRIDIN-3-YL}PROPANOIC ACID] | 0.187 µM | 410% | 

The remaining lines, values ahead:

EC50 | Emax (read-out: Emax) | Emax | Structure (SMILES)
0.0474 µM | 586% |  | CN1C(=O)CCC1c1cc2[nH]c(-c3nc(CC(=O)O)c(Cl)s3)cc2cc1Oc1ccc(S(C)(=O)=O)cc1 (centres unmarked) [Example 33, 2-(5-chloro-2-(6-(1-methyl-5-oxopyrrolidin-2-yl)-5-(4-(methylsulfonyl)phenoxy)-1H-indol-2-yl)thiazol-4-yl)acetic acid]
0.0089 µM | 656% |  | COC(=O)CCc1cnc(-c2cc3cc(Oc4ccc(S(C)(=O)=O)cc4)c(C4CCC(=O)N4C)cc3[nH]2)s1 (centres unmarked) [Example 35, methyl 3-(2-(6-(1-methyl-5-oxopyrrolidin-2-yl)-5-(4-(methylsulfonyl)phenoxy)-1H-indol-2-yl)thiazol-5-yl)propanoate]
0.0536 µM | 614% |  | CCS(=O)(=O)c1ccc(Oc2cc3cc(-c4ccc(P(C)(=O)O)cn4)[nH]c3cc2C2CCC(=O)N2C)cc1 (centres unmarked) [Example 12, (6-(5-(4-(ETHYLSULFONYL)PHENOXY)-6-(1-METHYL-5-OXOPYRROLIDIN-2-YL)-1H-INDOL-2-YL)PYRIDIN-3-YL)(METHYL)PHOSPHINIC ACID]
0.0391 µM | 628% |  | CN1C(=O)CCC1c1cc2[nH]c(-c3cnccn3)cc2cc1Oc1ccc(CCC(=O)O)cc1 (centres unmarked) [Example 21, 3-(4-((6-(1-methyl-5-oxopyrrolidin-2-yl)-2-(pyrazin-2-yl)-1H-indol-5-yl)oxy)phenyl)propanoic acid]
0.021 µM | 649% |  | COC(=O)Cc1ccc(Oc2cc3cc(-c4ccccn4)[nH]c3cc2C2CCC(=O)N2C)cc1 (centres unmarked) [Example 25, methyl 2-(4-((6-(1-methyl-5-oxopyrrolidin-2-yl)-2-(pyridin-2-yl)-1H-indol-5-yl)oxy)phenyl)acetate]
0.0021 µM | 574% |  | COC(=O)CCc1ccc(Oc2cc3cc(-c4cnccn4)[nH]c3cc2C2CCC(=O)N2C)cc1 (centres unmarked) [Example 23, methyl 3-(4-((6-(1-methyl-5-oxopyrrolidin-2-yl)-2-(pyrazin-2-yl)-1H-indol-5-yl)oxy)phenyl)propanoate]
0.0639 µM | 521% |  | CN1C(=O)CCC1c1cc2[nH]c(-c3ccc(C(F)(F)F)cn3)cc2cc1Oc1ccc(CC(=O)O)cc1 (centres unmarked) [Example 20, 2-(4-((6-(1-methyl-5-oxopyrrolidin-2-yl)-2-(5-(trifluoromethyl)pyridin-2-yl)-1H-indol-5-yl)oxy)phenyl)acetic acid]
0.0238 µM | 630% |  | CN1C(=O)CCC1c1cc2[nH]c(-c3ccccn3)cc2cc1Oc1ccc(CC(=O)O)cc1 (centres unmarked) [Example 27, 2-(4-((6-(1-methyl-5-oxopyrrolidin-2-yl)-2-(pyridin-2-yl)-1H-indol-5-yl)oxy)phenyl)acetic acid]
0.0139 µM | 419% |  | COC(=O)CCc1ccc(-c2cc3cc(Oc4ccc(C(=O)N5CCC5)nc4)c(C4CCCN4C(C)=O)cc3[nH]2)nc1 (centres unmarked) [Example 10, METHYL 3-{6-[6-(1-ACETYLPYRROLIDIN-2-YL)-5-{[6-(AZETIDIN-1-YLCARBONYL)PYRIDIN-3-YL]OXY}-1H-INDOL-2-YL]PYRIDIN-3-YL}PROPANOATE]
0.0019 µM | 624% |  | CCS(=O)(=O)c1ccc(Oc2cc3cc(-c4ccc(CCC(=O)OC)cn4)[nH]c3cc2C2CCC(=O)N2C)cc1 (centres unmarked) [Example 1, METHYL 3-(6-{5-[4-(ETHYLSULFONYL)PHENOXY]-6-(1-METHYL-5-OXOPYRROLIDIN-2-YL)-1H-INDOL-2-YL}PYRIDIN-3-YL)PROPANOATE]
0.0688 µM | 599% |  | CN1C(=O)CCC1c1cc2[nH]c(-c3ncc(CCC(=O)O)s3)cc2cc1Oc1ccc(S(C)(=O)=O)nc1 (centres unmarked) [Example 31, 3-(2-(6-(1-methyl-5-oxopyrrolidin-2-yl)-5-((6-(methylsulfonyl)pyridin-3-yl)oxy)-1H-indol-2-yl)thiazol-5-yl)propanoic acid]
0.0651 µM | 566% |  | COC(=O)Cc1csc(-c2cc3cc(Oc4ccc(S(C)(=O)=O)cc4)c(C4CCC(=O)N4C)cc3[nH]2)n1 (centres unmarked) [Example 32, methyl 2-(2-(6-(1-methyl-5-oxopyrrolidin-2-yl)-5-(4-(methylsulfonyl)phenoxy)-1H-indol-2-yl)thiazol-4-yl)acetate]
0.0534 µM | 652% |  | CCS(=O)(=O)c1ccc(Oc2cc3cc(-c4ccc(CCC(=O)O)cn4)[nH]c3cc2C2CCC(=O)N2C)cc1 (centres unmarked) [Example 2, 3-(6-{5-[4-(ETHYLSULFONYL)PHENOXY]-6-(1-METHYL-5-OXOPYRROLIDIN-2-YL)-1H-INDOL-2-YL}PYRIDIN-3-YL)PROPANOIC ACID]
0.0491 µM | 506% |  | CN1C(=O)CCC1c1cc2[nH]c(-c3nc(CC(=O)O)c(Cl)s3)cc2cc1Oc1ccc(S(C)(=O)=O)nc1 (centres unmarked) [Example 30, 2-(5-chloro-2-(6-(1-methyl-5-oxopyrrolidin-2-yl)-5-((6-(methylsulfonyl)pyridin-3-yl)oxy)-1H-indol-2-yl)thiazol-4-yl)acetic acid]
